Assay results taken from ChEMBL document CHEMBL1201862, “PubChem BioAssay data set” (2004).
Several values for one entry are separate records, joined by “and”; a condition that tells them apart may be missing. Equal entries are not always repeated.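 Briefly, cells in 96-well plates were exposed to five compound concentrations for 48 h, and endpoints were estimated by linear interpolation. Abbreviation: GI50, concentration required for 50% inhibition of growth.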 Activity calls are given as the source filed them. Cut-off read from the data, not from the text of the source: active = GI50 up to about 1.1 µM and inactive = higher.

What was measured:
Assay in all cases: NCI-60 cell line screen, 48 h
ACHN = system: ACHN
K562 = system: K562
MDA-N = system: MDA-N
SNB-19 = system: SNB-19
U-251 = system: U-251
SK-OV-3 = system: SK-OV-3
786-0 = system: 786-0
PC-3 = system: PC-3
SR = system: SR
SF-268 = system: SF-268
HT-29 = system: HT-29
EKVX = system: EKVX
NCI/ADR-RES = system: NCI/ADR-RES
NCI-H23 = system: NCI-H23
NCI-H460 = system: NCI-H460
A549 = system: A549
M14 = system: M14
MDA-MB-435 = system: MDA-MB-435
UACC-257 = system: UACC-257
HOP-92 = system: HOP-92

| Compound | GI50 (ACHN) | GI50 (K562) | GI50 (MDA-N) | GI50 (SNB-19) | GI50 (U-251) | GI50 (SK-OV-3) | GI50 (786-0) | GI50 (PC-3) | GI50 (SR) | GI50 (SF-268) | GI50 (HT-29) | GI50 (EKVX) | GI50 (NCI/ADR-RES) | GI50 (NCI-H23) | GI50 (NCI-H460) | GI50 (A549) | GI50 (M14) | GI50 (MDA-MB-435) | GI50 (UACC-257) | GI50 (HOP-92) |
| --- | --- | --- | --- | --- | --- | --- | --- | --- | --- | --- | --- | --- | --- | --- | --- | --- | --- | --- | --- | --- |
| O=C1C=C(NCCc2ccccc2)c2ccccc2C1=O | 2.82 µM (inactive) | 4.34 µM (inactive) | 1.78 µM (inactive) | 2.81 µM (inactive) | 4.75 µM (inactive) | 13.9 µM (inactive) | 3.64 µM (inactive) | 5.25 µM (inactive) | 5.94 µM (inactive) | 7.24 µM (inactive) | 3.49 µM (inactive) | 5.78 µM (inactive) | 4.11 µM (inactive) | 2.33 µM (inactive) | 1.57 µM (inactive) | 1.95 µM (inactive) | 1.59 µM (inactive) | 0.925 µM (active) | 1.53 µM (inactive) | 12.5 µM (inactive) |
| CCCCCCCCCC/C=C/CC(=O)SCCNC(=O)CCNC(=O)[C@@H](O)C(C)(C)COP(=O)(O)OP(=O)(O)OCC1OC(n2cnc3c(N)ncnc32)C(O)C1OP(=O)(O)O (stereo not given in full) | > 10 µM (inactive) | > 10 µM (inactive) | > 10 µM (inactive) | > 10 µM (inactive) | > 10 µM (inactive) | > 10 µM (inactive) | > 10 µM (inactive) | > 10 µM (inactive) | – | > 10 µM (inactive) | > 10 µM (inactive) | > 10 µM (inactive) | > 10 µM (inactive) | > 10 µM (inactive) | > 10 µM (inactive) | > 10 µM (inactive) | > 10 µM (inactive) | > 10 µM (inactive) | > 10 µM (inactive) | > 10 µM (inactive) |
| COc1ccccc1C1SCC(=O)N1c1ccc(-n2c(-c3ccccc3)nc3ccccc3c2=O)cc1 (stereo not given) | 71.8 µM (inactive) | 47.9 µM (inactive) | > 100 µM (inactive) | > 100 µM (inactive) | 73.1 µM (inactive) | > 100 µM (inactive) | > 100 µM (inactive) | 80.4 µM (inactive) | 81.7 µM (inactive) | 78.2 µM (inactive) | 64.1 µM (inactive) | > 100 µM (inactive) | 19.3 µM (inactive) | > 100 µM (inactive) | 40.7 µM (inactive) | 62.7 µM (inactive) | – | 53.8 µM (inactive) | > 100 µM (inactive) | 19.2 µM (inactive) |
| CCOC(=O)Nc1ccc(C)c(NC(=O)OCC)c1 | > 100 µM (inactive) | > 100 µM (inactive) | > 100 µM (inactive) | > 100 µM (inactive) | > 100 µM (inactive) | > 100 µM (inactive) | > 100 µM (inactive) | > 100 µM (inactive) | > 100 µM (inactive) | > 100 µM (inactive) | > 100 µM (inactive) | 6.58 µM (inactive) | > 100 µM (inactive) | > 100 µM (inactive) | > 100 µM (inactive) | > 100 µM (inactive) | > 100 µM (inactive) | > 100 µM (inactive) | > 100 µM (inactive) | > 100 µM (inactive) |
| COc1cc(/C=N\c2nc(-c3ccc(NS(=O)(=O)c4ccc(Cl)c(OC)c4)cc3)cs2)ccc1O | 50.7 µM (inactive) | 27.9 µM (inactive) | 29.6 µM (inactive) | > 100 µM (inactive) | – | > 100 µM (inactive) | > 100 µM (inactive) | 50.8 µM (inactive) | 30.8 µM (inactive) | 37.6 µM (inactive) | > 100 µM (inactive) | 26.7 µM (inactive) | > 100 µM (inactive) | 31.1 µM (inactive) | – | 74.6 µM (inactive) | 95.5 µM (inactive) | 35.4 µM (inactive) | – | 24.9 µM (inactive) |
| O=C(/C=C/c1cccs1)c1ccc(Cl)s1 | > 100 µM (inactive) | 31.3 µM (inactive) | > 10 µM (inactive) | 15.7 µM (inactive) | 40.8 µM (inactive) | 67 µM (inactive) | > 10 µM (inactive) | 40.6 µM (inactive) | 25.2 µM (inactive) | 38.7 µM (inactive) | > 10 µM (inactive) | > 100 µM (inactive) | > 100 µM (inactive) | 23.1 µM (inactive) | 72.8 µM (inactive) | 42.9 µM (inactive) | 38.8 µM (inactive) | 21.9 µM (inactive) | 39.8 µM (inactive) | – |
| COC(=O)C1=C(C(=O)OC)SC2(S1)C(C(=O)OC)=C(C(=O)OC)Sc1c2ssc1=O | 0.927 µM (active) | 0.547 µM (active) | 1.66 µM (inactive) | 18.5 µM (inactive) | 2.12 µM (inactive) | 8.97 µM (inactive) | 0.456 µM (active) | 1.43 µM (inactive) | – | 2.52 µM (inactive) | 0.585 µM (active) | 2.16 µM (inactive) | 1 µM (active) | 1.78 µM (inactive) | 2.88 µM (inactive) | 9.66 µM (inactive) | 1.12 µM (inactive) | 1.57 µM (inactive) | 1.51 µM (inactive) | 0.826 µM (active) |
| O=C(CCCN1CCC(Nc2ccc(F)cc2)(c2nnnn2C2CCCCC2)CC1)c1ccc(F)cc1 | 10.6 µM (inactive) | 3.98 µM (inactive) | 15.5 µM (inactive) | 15.6 µM (inactive) | 15.3 µM (inactive) | 3.39 µM (inactive) | 17.8 µM (inactive) | 13.1 µM (inactive) | 11.7 µM (inactive) | 12.8 µM (inactive) | 8.57 µM (inactive) | 15.9 µM (inactive) | 16.3 µM (inactive) | 14.5 µM (inactive) | 11.6 µM (inactive) | 13.1 µM (inactive) | 16.7 µM (inactive) | 16.7 µM (inactive) | 21.3 µM (inactive) | – |
| COC1C(OC(C)=O)CC(=O)OC(C)C/C=C/C=C\C(O)C(C)CC(CC=O)C1OC1OC(C)C(OC2CC(C)(O)C(OC(=O)CC(C)C)C(C)O2)C(N(C)C)C1O (stereo not given) | > 100 µM (inactive) | 29.5 µM (inactive) and 51.2 µM (inactive) | 61.2 µM (inactive) | > 100 µM (inactive) and 77.6 µM (inactive) | > 100 µM (inactive) | > 100 µM (inactive) | > 100 µM (inactive) | 79.6 µM (inactive) | 24.6 µM (inactive) and 18.5 µM (inactive) | 56 µM (inactive) | > 100 µM (inactive) and 67.9 µM (inactive) | – | > 100 µM (inactive) | > 100 µM (inactive) | > 100 µM (inactive) | > 100 µM (inactive) | 89.3 µM (inactive) and 57.5 µM (inactive) | 51.1 µM (inactive) | 66.5 µM (inactive) and 70.1 µM (inactive) | > 100 µM (inactive) |
| COc1ccc(/N=N/C(=O)NC(Cc2ccccc2)C(=O)O)cc1 (stereo not given) | > 100 µM (inactive) | > 100 µM (inactive) | > 100 µM (inactive) | > 100 µM (inactive) | > 100 µM (inactive) | – | > 100 µM (inactive) | 95.7 µM (inactive) | > 100 µM (inactive) | > 100 µM (inactive) | > 100 µM (inactive) | > 100 µM (inactive) | > 100 µM (inactive) | > 100 µM (inactive) | > 100 µM (inactive) | > 100 µM (inactive) | > 100 µM (inactive) | > 100 µM (inactive) | > 100 µM (inactive) | 28.2 µM (inactive) |
| CC(C)(NC(=O)OCc1ccccc1)C(=O)OC(=O)C(C)(C)NC(=O)OCc1ccccc1 | > 100 µM (inactive) | > 100 µM (inactive) | 23.6 µM (inactive) | > 100 µM (inactive) | > 100 µM (inactive) | 54.2 µM (inactive) | > 100 µM (inactive) | > 100 µM (inactive) | – | 0.653 µM (active) | > 100 µM (inactive) | > 100 µM (inactive) | > 100 µM (inactive) | > 100 µM (inactive) | > 100 µM (inactive) | > 100 µM (inactive) | > 100 µM (inactive) | > 100 µM (inactive) | – | > 100 µM (inactive) |
| c1sc(NC2=NCCO2)c2c1CCCC2 | > 100 µM (inactive) | > 100 µM (inactive) | > 100 µM (inactive) | > 100 µM (inactive) | > 100 µM (inactive) | > 100 µM (inactive) | > 100 µM (inactive) | 99.8 µM (inactive) | > 100 µM (inactive) | – | > 100 µM (inactive) | > 100 µM (inactive) | > 100 µM (inactive) | > 100 µM (inactive) | > 100 µM (inactive) | > 100 µM (inactive) | > 100 µM (inactive) | > 100 µM (inactive) | > 100 µM (inactive) | > 100 µM (inactive) |
| C=CCN1CCC(c2cc(C(=O)OCC)[nH]c2-c2cc(C)no2)C1=O (stereo not given) | – | > 100 µM (inactive) | > 100 µM (inactive) | > 100 µM (inactive) | > 100 µM (inactive) | > 100 µM (inactive) | > 100 µM (inactive) | > 100 µM (inactive) | 43.8 µM (inactive) | > 100 µM (inactive) | > 100 µM (inactive) | > 100 µM (inactive) | > 100 µM (inactive) | > 100 µM (inactive) | > 100 µM (inactive) | > 100 µM (inactive) | > 100 µM (inactive) | > 100 µM (inactive) | > 100 µM (inactive) | > 100 µM (inactive) |
| CN1C(=O)C(CCO)(C(C)(C)C)c2ccccc21 (stereo not given) | > 100 µM (inactive) | > 100 µM (inactive) | > 100 µM (inactive) | > 100 µM (inactive) | > 100 µM (inactive) | > 100 µM (inactive) | > 100 µM (inactive) | > 100 µM (inactive) | > 100 µM (inactive) | > 100 µM (inactive) | – | > 100 µM (inactive) | > 100 µM (inactive) | > 100 µM (inactive) | > 100 µM (inactive) | > 100 µM (inactive) | > 100 µM (inactive) | > 100 µM (inactive) | > 100 µM (inactive) | > 100 µM (inactive) |
